Values of other authors, collected in patent publication US20070250270A1, “Cellular predictive models for toxicities” (Cytokinetics, Inc., priority 2006, published 2007).
Starred links: 1 amine or outer side, 2 acyl side, 3 side chain; linkers in the order of their positions; H or OH if unused. Positions of bridges follow the written chain, without caps; N, C: chain ends. Non-standard residues stand in square brackets, D forms with d. Residues, ends and D or L forms follow the SMILES beside them. Trp(2-yl) = O=C([C@H](Cc1c([*:3])[nH]c2ccccc12)N[*:1])[*:2]; Leu(4R-OH,5-OH) = C[C@](O)(CO)C[C@H](N)C(=O)O; cisHyp = O=C(O)[C@@H]1C[C@H](O)CN1

How the values were obtained:
bile flow = conditions: rats

Structure (SMILES)	effect on bile flow, resulting in cholestatic injury (bile flow)	effect on filamentous F actin around canaliculi and tight junctions (filamentous F actin)
C=C1[C@@H](C)[C@H]2[C@H](Cc3ccccc3)NC(=O)[C@]23OC(=O)/C=C/[C@H](O)CCC[C@@H](C)C/C=C/[C@H]3[C@@H]1O [cytochalasin B]	prompt arrest of bile flow	
C[C@@H]1NC(=O)[C@H](C[C@@](C)(O)CO)NC(=O)[C@@H]2Cc3c([nH]c4ccccc34)SC[C@H](NC(=O)[C@@H]([C@H](C)O)NC1=O)C(=O)N1C[C@@H](O)C[C@H]1C(=O)N[C@@H](C)C(=O)N2 [phalloidin] (cyclo(A[dT]C[cisHyp]A[Trp(2-yl)][Leu(4R-OH,5-OH)]); thioether 3-6)		increase in filamentous F actin around canaliculi and tight junctions
